Test results published in patent publication US6683047B1, “Method of inhibiting transcription utilizing nuclear receptors” (The Burnham Institute, priority 1990, dated 2004).
Values belong to the molecule of their own block, whether it stands above or below them.

What was measured:
[1] = tested on: collagenase promoter AP-1 site (RARβ); assay: -73Col-CAT reporter co-transfected with RARβ expression vector in HeLa cells, TPA induced CAT activity; type: cell-based
Protocol: The −73 Col CAT reporter gene was cotransfected into HeLa with an expression vector for RARβ/ε. Cells were grown in the presence of the indicated amounts of RA and/or TPA.

[2] = tested on: collagenase promoter lacking AP-1 site (-63Col-CAT); assay: -63Col-CAT reporter co-transfected with RARβ in HeLa cells; type: cell-based; details: presence or absence of RA
[3] = tested on: TPA induced collagenase promoter activity (TRα); assay: -73 Col CAT reporter in CV-1 cells, T3 dependent repression by TRα; type: cell-based
Protocol: In addition, applicants have discovered that the thyroid hormone receptor, in the presence of Thyroid hormone, binds AP-1 through a protein/protein interaction and inhibits the transcription of AP-1 activated genes. Specifically, TRα represses TPA induced collagenase promoter activity in a T3 dependent fashion. The −73 Col CAT reporter gene was cotransfected into CV-1 cells with an expression vector for […]. Cells were grown in the presence of the indicated amounts of T3 and/or TPA.

collagenase AP-1 site = assay: Gel retardation assay, binding to DNA fragment containing the collagenase AP-1 site; details: in vitro synthesized protein, 32P-labelled fragment
Protocol: In vitro synthesized glucocorticoid receptor (GR) and retinoic acid receptor (RAR) were incubated with ^32P-labelled DNA fragment derived from −73 COL-CAT by Hind III and Bam HI digestion. Protein-DNA complex was analyzed by gel retardation assay. Control represents the binding of unprogrammed reticulocyte lysate.
Gel retardation experiments were carried out with a 60 bp DNA fragment containing the collagenase AP-1 site.

[4] = target: T1, cJun binding to the AP-1 site (Homo sapiens, UniProt P05412); assay: Gel retardation assay, effect on cJun binding to the AP-1 site; details: one-fold or five-fold excess, 37° C. for 15 minutes
T1 construct: made in house; host or cells: cell-free (in vitro) translation or bacteria
T1 sequence (P05412 whole entry): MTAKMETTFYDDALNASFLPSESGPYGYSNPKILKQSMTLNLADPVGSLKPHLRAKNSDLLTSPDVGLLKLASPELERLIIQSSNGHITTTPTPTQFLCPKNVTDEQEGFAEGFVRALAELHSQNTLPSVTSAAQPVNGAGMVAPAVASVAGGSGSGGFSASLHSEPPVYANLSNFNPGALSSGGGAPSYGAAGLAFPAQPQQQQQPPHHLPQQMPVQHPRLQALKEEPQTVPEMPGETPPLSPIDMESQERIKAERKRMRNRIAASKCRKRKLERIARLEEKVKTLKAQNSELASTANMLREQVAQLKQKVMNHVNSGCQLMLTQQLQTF
Protocol: In vitro synthesized cJun protein was incubated with one-fold (1) or five-fold (5) excess of in vitro synthesized RARβ or RARγ protein at 37° C. for 15 minutes. The effect of RARβ or RARγ or cJun binding was analyzed by gel retardation assay.
The Inhibition of cJun binding to the AP-1 site was dependent on the amount of RARs used, and was also observed in response to pre-incubation with in vitro synthesized GR (FIG. 4). As shown for the GRs in Example VI, this in vitro inhibition of cJun binding was ligand independent. The inhibition of Jun binding activity is a specific effect of each receptor because pre-incubation of the cell-free translated RARβ with anti-RAR antibodies prevented this inhibition, while pre-incubation with anti-GR or preimmune serum had no effect. Likewise, the inhibitory activity of cell-free translated GR is inhibited by anti-GR antibodies, but not by anti-RAR or preimmune serum. […] We therefore investigated whether the binding of the heterodimers could also be inhibited by the RAR.

RARβ binding to RARE = target: T2, RARβ binding to RARE (Homo sapiens, UniProt P10826); assay: Gel retardation assay, effect on RARβ binding to RARE; details: bacterially produced cJun pre-incubated with RARβ
T2 construct: made in house; host or cells: in vitro translation (reticulocyte lysate)
T2 sequence (P10826 1-455): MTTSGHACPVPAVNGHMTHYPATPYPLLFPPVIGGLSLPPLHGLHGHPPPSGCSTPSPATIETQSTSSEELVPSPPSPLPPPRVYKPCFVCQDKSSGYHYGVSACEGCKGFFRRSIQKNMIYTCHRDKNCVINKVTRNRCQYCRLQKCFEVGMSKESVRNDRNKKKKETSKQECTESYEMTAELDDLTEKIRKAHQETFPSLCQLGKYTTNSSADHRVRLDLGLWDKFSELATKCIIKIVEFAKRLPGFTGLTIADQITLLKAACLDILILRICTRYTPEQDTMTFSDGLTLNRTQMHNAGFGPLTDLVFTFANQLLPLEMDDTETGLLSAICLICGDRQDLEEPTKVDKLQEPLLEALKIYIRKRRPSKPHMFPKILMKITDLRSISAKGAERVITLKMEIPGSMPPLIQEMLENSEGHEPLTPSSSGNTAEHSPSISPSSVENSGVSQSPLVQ
Protocol: In vitro synthesized RAR protein was incubated with ^32P-labelled DNA fragment containing one copy of RARE. The binding of RAR on RARE was analyzed by gel retardation assay. […] C represents the binding of unprogrammed reticulocyte lysate in FIG. 5. To test the effect of cJun protein on RAR binding, excess amount of bacterial expressed Jun protein was incubated with RAR at 37° C. for 15 minutes before the addition of DNA. When anti-cJun (a cJun) was used, it was incubated with Jun protein at room temperature for 45 minutes before mixing with RAR protein.
This inhibition was specific as it was prevented by pre-incubation of cJun with anti-Jun antibodies.

IC50 ([1]; Homo sapiens, read-out: half maximal inhibition of TPA induced activity of -73 Col-CAT by RARβ): 1 nM
Molecule: CC1=C(/C=C/C(C)=C/C=C/C(C)=C/C(=O)O)C(C)(C)CCC1 [RA, retinoic acid]
concentration required for maximal repression of TPA induced activity of -73 Col-CAT [1]: 10^−6 M | effect on -63Col-CAT activity [2]: no effect

Molecule: N[C@@H](Cc1cc(I)c(Oc2ccc(O)c(I)c2)c(I)c1)C(=O)O [T3]
repression of TPA collagenase promoter activity [3]: dependant on the concentration of T3

binding to collagenase AP-1 site or synthetic AP-1 site (collagenase AP-1 site): did not bind | inhibition of cJun binding to the AP-1 site [4]: also observed
Molecule: GR: in vitro synthesized glucocorticoid receptor

binding to collagenase AP-1 site or synthetic AP-1 site (collagenase AP-1 site): specific binding
Molecule: cJun: bacterially produced or in vitro translated cJun protein, AP-1 component
inhibition of RARβ DNA binding activity on RARE (RARβ binding to RARE): inhibited its DNA binding activity in a concentration dependent manner

inhibition of cJun binding to the AP-1 site [4]: significant inhibition
B1: RARγ: in vitro synthesized (cell-free translated) retinoic acid receptor γ protein (protein, UniProt P13631 1-454, looked up)
Retinoic acid receptor gamma: MATNKERLFAAGALGPGSGYPGAGFPFAFPGALRGSPPFEMLSPSFRGLGQPDLPKEMASLSVETQSTSSEEMVPSSPSPPPPPRVYKPCFVCNDKSSGYHYGVSSCEGCKGFFRRSIQKNMVYTCHRDKNCIINKVTRNRCQYCRLQKCFEVGMSKEAVRNDRNKKKKEVKEEGSPDSYELSPQLEELITKVSKAHQETFPSLCQLGKYTTNSSADHRVQLDLGLWDKFSELATKCIIKIVEFAKRLPGFTGLSIADQITLLKAACLDILMLRICTRYTPEQDTMTFSDGLTLNRTQMHNAGFGPLTDLVFAFAGQLLPLEMDDTETGLLSAICLICGDRMDLEEPEKVDKLQEPLLEALRLYARRRRPSQPYMFPRMLMKITDLRGISTKGAERAITLKMEIPGPMPPLIREMLENPEMFEDDSSQPGPHPNASSEDEVPGGQGKGGLKSPA

binding to collagenase AP-1 site or synthetic AP-1 site (collagenase AP-1 site): did not bind | inhibition of cJun binding to the AP-1 site [4]: significant inhibition
B2: RARβ: in vitro synthesized (cell-free translated) retinoic acid receptor β protein (protein, UniProt P10826 1-455, looked up)
Retinoic acid receptor beta: T2 sequence (P10826 1-455)
